Measured values: article PMC3747596 (PLoS ONE, 2013)
Like-named read-outs stand apart in the source and are kept apart here.

Tests used:
[1] = tested on: mice; conditions: cited from earlier work
[2] = Caco-2 cell monolayer permeation; conditions: human, Caco-2, pH 7.4
[3] = target: T1, μ opioid receptor (Homo sapiens, UniProt P35372); assay: Radioligand displacement, μ; assay type: binding; conditions: binding curve File S1, Mu Opiod Receptor, [3H]DAMGO (0.3 nM), Standard Binding Buffer, read-out: Ki
T1 construct: expressed in transfected cells
T1 sequence (P35372 whole entry): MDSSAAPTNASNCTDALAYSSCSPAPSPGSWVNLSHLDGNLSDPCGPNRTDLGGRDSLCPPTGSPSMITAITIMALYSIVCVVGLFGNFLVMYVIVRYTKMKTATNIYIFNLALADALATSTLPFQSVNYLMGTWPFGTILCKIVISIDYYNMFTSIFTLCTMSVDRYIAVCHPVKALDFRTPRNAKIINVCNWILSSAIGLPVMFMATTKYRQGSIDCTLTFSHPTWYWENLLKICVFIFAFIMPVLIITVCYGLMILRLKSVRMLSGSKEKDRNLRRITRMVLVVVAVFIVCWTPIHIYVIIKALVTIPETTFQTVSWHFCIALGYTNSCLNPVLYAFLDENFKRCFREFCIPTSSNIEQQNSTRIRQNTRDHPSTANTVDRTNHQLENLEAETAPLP

For NCc1ccc2[nH]c3c(c2c1)CC1(O)C2Cc4ccc(O)c5c4C1(CCN2CC1CC1)C3O5 (stereo not shown) [5′-aminomethylnaltrindole], the toxic signs ([1]; 20 mg/kg i.p.) is listed as “gasping and convulsions”.

In the case of O=C1CC[C@@]2(O)[C@H]3Cc4ccc(O)c5c4[C@@]2(CCN3CC2CC2)[C@H]1O5 [Naltrexone], the LD50 ([1]; mice, s.c.) is given as 570 mg/kg, the Papp A→B at 120 min [2] is given as 59 ×10⁻⁶ cm/s and the Papp B→A at 120 min [2] is given as 270 ×10⁻⁶ cm/s. The efflux ratio at 120 min [2] was 5.7.

“DAM80: reference ligand of the mu opioid binding curve” showed a Ki ([3]; listed as DAM30) of 0.41 nM and a Ki [3] of 0.54 nM.
